Laboratory results: ChEMBL document CHEMBL2331307, “Modulation of cytochromes P450 with xanthone-based molecules: from aromatase to aldosterone synthase and steroid 11β-hydroxylase inhibition” (J Med Chem, 2013)

Columns and labels:
[1] = molecular target: T1, Steroid 17-alpha-hydroxylase/17,20 lyase (Homo sapiens, UniProt P05093)
T1 sequence (P05093 whole entry): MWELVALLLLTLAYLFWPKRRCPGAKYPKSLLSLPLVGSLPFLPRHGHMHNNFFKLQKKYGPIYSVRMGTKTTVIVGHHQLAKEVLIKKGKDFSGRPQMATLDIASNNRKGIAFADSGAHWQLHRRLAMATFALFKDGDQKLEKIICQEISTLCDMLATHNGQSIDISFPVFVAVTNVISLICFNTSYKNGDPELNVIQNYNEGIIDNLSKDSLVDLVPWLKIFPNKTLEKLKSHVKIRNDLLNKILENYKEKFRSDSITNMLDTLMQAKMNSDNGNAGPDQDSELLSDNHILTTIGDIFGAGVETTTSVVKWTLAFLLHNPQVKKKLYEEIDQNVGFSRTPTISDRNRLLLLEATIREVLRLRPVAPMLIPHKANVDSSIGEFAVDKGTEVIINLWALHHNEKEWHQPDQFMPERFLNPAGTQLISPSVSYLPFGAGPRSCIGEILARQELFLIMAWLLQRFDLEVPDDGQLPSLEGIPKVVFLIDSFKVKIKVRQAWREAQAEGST
Description: Inhibition of human CYP17 expressed in Escherichia coli co-expressing rat NADPH-P450-reductase using progesterone as substrate

[2] = molecular target: T2, Cytochrome P450 11B2, mitochondrial (Homo sapiens, UniProt P19099)
T2 sequence (P19099 whole entry): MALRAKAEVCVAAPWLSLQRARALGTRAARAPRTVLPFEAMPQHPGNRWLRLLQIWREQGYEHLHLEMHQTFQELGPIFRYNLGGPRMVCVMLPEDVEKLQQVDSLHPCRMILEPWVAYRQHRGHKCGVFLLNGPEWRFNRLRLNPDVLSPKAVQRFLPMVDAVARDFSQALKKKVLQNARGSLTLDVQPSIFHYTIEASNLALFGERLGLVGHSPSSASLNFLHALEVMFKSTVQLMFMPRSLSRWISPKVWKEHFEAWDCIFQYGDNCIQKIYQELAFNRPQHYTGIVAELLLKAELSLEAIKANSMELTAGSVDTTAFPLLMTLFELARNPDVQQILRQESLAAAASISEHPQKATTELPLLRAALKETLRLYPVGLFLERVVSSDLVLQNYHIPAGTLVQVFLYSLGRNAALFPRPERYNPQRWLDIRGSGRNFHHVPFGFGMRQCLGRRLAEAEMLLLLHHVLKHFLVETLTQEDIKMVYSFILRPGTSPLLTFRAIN
Description: Inhibition of human CYP11B2 expressed in hamster V79MZh cells using [1,2-3H]-11-deoxycorticosterone as substrate

[3] = molecular target: T3, Cytochrome P450 11B1, mitochondrial (Homo sapiens, UniProt P15538)
T3 sequence (P15538 whole entry): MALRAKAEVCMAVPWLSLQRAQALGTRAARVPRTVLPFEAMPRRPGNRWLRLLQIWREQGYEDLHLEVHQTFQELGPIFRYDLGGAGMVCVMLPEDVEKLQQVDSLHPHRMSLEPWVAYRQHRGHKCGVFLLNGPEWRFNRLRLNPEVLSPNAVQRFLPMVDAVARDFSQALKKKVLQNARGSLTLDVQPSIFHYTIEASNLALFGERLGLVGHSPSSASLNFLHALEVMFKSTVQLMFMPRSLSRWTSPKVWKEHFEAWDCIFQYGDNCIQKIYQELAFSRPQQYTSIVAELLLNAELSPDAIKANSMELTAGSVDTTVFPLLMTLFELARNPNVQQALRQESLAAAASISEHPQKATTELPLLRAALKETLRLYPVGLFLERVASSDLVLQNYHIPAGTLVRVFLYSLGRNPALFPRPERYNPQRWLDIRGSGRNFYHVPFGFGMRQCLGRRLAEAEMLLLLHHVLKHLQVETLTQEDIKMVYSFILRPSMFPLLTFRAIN
Description: Inhibition of human CYP11B1 expressed in hamster V79MZh cells using [1,2-3H]-11-deoxycorticosterone as substrate

[4] = molecular target: T4, Aromatase (Homo sapiens, UniProt P11511)
T4 sequence (P11511 whole entry): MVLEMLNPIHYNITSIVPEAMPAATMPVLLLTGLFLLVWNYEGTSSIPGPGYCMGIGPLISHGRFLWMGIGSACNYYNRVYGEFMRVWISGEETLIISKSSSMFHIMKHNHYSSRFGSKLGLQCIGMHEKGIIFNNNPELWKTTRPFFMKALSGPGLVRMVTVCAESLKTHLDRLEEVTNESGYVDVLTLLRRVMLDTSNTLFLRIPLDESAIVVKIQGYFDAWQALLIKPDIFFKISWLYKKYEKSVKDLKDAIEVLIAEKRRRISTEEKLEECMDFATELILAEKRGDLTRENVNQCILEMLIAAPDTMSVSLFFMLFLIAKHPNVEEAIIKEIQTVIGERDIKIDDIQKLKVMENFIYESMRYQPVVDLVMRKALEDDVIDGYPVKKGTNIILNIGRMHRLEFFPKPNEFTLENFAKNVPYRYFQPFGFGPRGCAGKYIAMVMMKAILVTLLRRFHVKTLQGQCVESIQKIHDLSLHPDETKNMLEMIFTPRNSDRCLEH
Description: Inhibition of human placental CYP19 using [1beta-3H]androstenedione as substrate by 3H2O-method

Row | SMILES | IC50 [1] [nM] | IC50 [2] [nM] | IC50 [3] [nM] | IC50 [4] [nM]
1 | Nc1ccc(Cn2ccnc2)c2c(=O)c3ccccc3oc12 | 1740 | 676 | 785 | 6390
2 | O=c1c2ccccc2oc2c(Br)ccc(Cn3ccnc3)c12 | – | 8.5 | 6.7 | –
3 | COc1ccc(Cn2ccnc2)c2c(=O)c3ccccc3oc12 | 610 | 41.1 | 80.1 | 1100
4 | O=c1c2ccccc2oc2c(I)ccc(Cn3ccnc3)c12 | 1350 | 23.5 | 19.2 | 460
5 | O=c1c2ccccc2oc2cccc(Cn3ccnc3)c12 | – | 114 | 99.1 | –
6 | N#Cc1ccc(Cn2ccnc2)c2c(=O)c3ccccc3oc12 | – | 19.5 | 13.4 | –
7 | O=c1c2ccccc2oc2c(OC3CCCC3)ccc(Cn3ccnc3)c12 | > 5000 | 99.7 | 268 | 260
8 | O=c1c2ccccc2oc2c(OCC3CC3)ccc(Cn3ccnc3)c12 | > 5000 | 24.1 | 5.5 | 565
9 | O=c1c2ccccc2oc2c([N+](=O)[O-])ccc(Cn3ccnc3)c12 | – | 31.1 | 22.3 | –
10 | CC(C)Oc1ccc(Cn2ccnc2)c2c(=O)c3ccccc3oc12 | 1250 | 19.1 | 92.5 | 400
11 | CCC(C)Oc1ccc(Cn2ccnc2)c2c(=O)c3ccccc3oc12 (configuration not stated) | > 5000 | 15.3 | 13.1 | 575
12 | C[C@]12CC[C@H](O)CC1=CC[C@@H]1[C@@H]2CC[C@]2(C)C(c3cccnc3)=CC[C@@H]12 [ABIRATERONE] | – | – | – | > 5000
13 | O=c1c2ccccc2oc2c(Cl)ccc(Cn3ccnc3)c12 | 260 | 3 | 0.5 | 480
14 | O=c1c2ccccc2oc2c(-c3ccccc3)ccc(Cn3ccnc3)c12 | 1890 | 104 | 156 | 300
15 | CCOc1ccc(Cn2ccnc2)c2c(=O)c3ccccc3oc12 | > 5000 | 14.8 | 25.4 | 1970
16 | O=c1c2ccccc2oc2c(O)ccc(Cn3ccnc3)c12 | 493 | 235 | 416 | 170
17 | CC(C)CCOc1ccc(Cn2ccnc2)c2c(=O)c3ccccc3oc12 | > 5000 | 25.2 | 24.4 | 837
